Experimental data reported in US20220339209A1, “ISOLATION, IDENTIFICATION AND APPLICATION OF STREPTOCOCCUS SP. 121” (priority 2021, published 2022).

Columns and labels:
[1] = test system: Shigella dysenteriae; experiment: Filtering paper agar diffusion bacteriostatic test against Shigella dysenteriae; format: cell-based; conditions: 50 μL on 0.6 cm filter paper, extract 1 mg/10 μL, positive control 1 mg/mL, MH plate, 37° C., 16-20 h
[2] = test system: Klebsiella pneumoniae; experiment: Filtering paper agar diffusion bacteriostatic test against Klebsiella pneumoniae; conditions: 50 μL on 0.6 cm filter paper, extract 1 mg/10 μL, positive control 1 mg/mL, MH plate, 37° C., 16-20 h

SMILES: NC[C@H]1O[C@H](O[C@H]2[C@H](O)[C@@H](O[C@H]3O[C@H](CO)[C@@H](O)[C@H](N)[C@H]3O)[C@H](N)C[C@@H]2N)[C@H](O)[C@@H](O)[C@@H]1O [Kanamycin, kanamycin]
- size of bacteriostatic ring, mean ([1]; mean of 3 measurements): 23.7 mm
- size of bacteriostatic ring ([1]; the first time): 24 mm
- size of bacteriostatic ring ([1]; the second time): 24 mm
- size of bacteriostatic ring ([1]; the third time): 23 mm
- size of bacteriostatic ring, mean ([2]; mean of 3 measurements): 19.7 mm
- size of bacteriostatic ring ([2]; the first time): 20 mm
- size of bacteriostatic ring ([2]; the second time): 18 mm
- size of bacteriostatic ring ([2]; the third time): 21 mm
